# Data published in patent publication US5359063A, “Heterocyclene derivatives” (Imperial Chemical Industries PLC, priority 1990, dated 1994).
# How the values were obtained:
# [1] = test system: 5-LO; test: Test g) LTB4 liberation induced by zymosan within an air pouch in male rats; assay type: in vivo; settings: 3 h; test g), rat air pouch, oral
# Description: g) An in vivo system involving measuring the effects of a test compound administered orally against the liberation of LTB4 induced by zymosan within an air pouch generated within the subcutaneous tissue of the back of male rats. The rats are anaesthetised and air pouches are formed by the injection of sterile air (20 ml). A further injection of air (10 ml) is similarIv given after 3 days. At 6 days after the initial air injection the test compound is administered (usually orally as the suspension produced when a solution of the test compound in dimethylsulphoxide is added to hydroxypropylmethylcellulose), followed by the intrapouch injection of zymosan (1 ml of a 1% suspension in physiological saline). After 3 hours the rats are killed, the air pouches are lavaged with physiological saline, and the specific radioimmunoassay described above is used to assay LTB4 in the washings. This test provides an indication of inhibitory effects against 5-LO in an inflammatory milieu.
# [2] = test system: 5-LO; test: Test b) LTB4 in heparinised human blood challenged with calcium ionophore A23187 (radioimmunoassay); assay type: cell-based
# Description: b) An in vitro assay system involving incubating a test compound with heparinised human blood, prior to challenge with the calcium ionophore A23187 and then indirectly measuring the inhibitory effects on 5-LO by assaying the amount of LTB4 using specific radioimmunoassays described by Carey and Forder (F. Carey and R. A. Forder, Prostaglandins, Leukotrienes Med., 1986, 22, 57; Prostaglandins, 1984, 28, 666; Brit. J. Pharmacol. 1985, 84, 34P) which involve the use of a protein-LTB4 conjugate produced using the procedure of Young et alia (Prostaglandins, 1983, 26(4), 605-613). The effects of a test compound on the enzyme cyclooxygenase (which is involved in the alternative metabolic pathway for arachidonic acid and gives rise to prostaglandins, thromboxanes and related metabolites) may be measured at the same time using the specific radioimmunoassay for thromboxane B2 (TxB2) described by Carey and Forder (see above). This test provides an indication of the effects of a test compound against 5-LO and also cyclooxygenase in the presence of blood cells and proteins. It permits the selectivity of the inhibitory effect on 5-LO or cyclooxygenase to be assessed.
IC50 [2],SMILES,ED50 [1]
0.15 µM,COC1(c2ccc(Sc3ccc(C(C)(C)C)cc3)s2)CCOCC1 [4-[5-(4-tert-butylphenylthio)thien-2-yl]-4-methoxytetrahydropyran],1.5 mg/kg
0.04 µM,"COC1(c2ccc(Sc3ccc4c(c3)CCC(=O)N4C)s2)CCOCC1 [4-methoxy-4-[5-(1-methyl-2-oxo-1,2,3,4-tetrahydroquinolin-6-ylthio)thien-2-yl]tetrahydropyran]",< 1.5 mg/kg
